One assay has as its system HIV-1, NL4-3 strain. Nature of the assay: Virus infection assay (virus entry and single-cycle infection). To be noted: Human immunodeficiency virus 1, NL43, TZM-b1, read-out: Nl4. The format is cell-based. The procedure, abridged:
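Single-cycle entry/infection read-out: β-galactosidase chemiluminescence measured one day after infection. Compounds were present during a 4 h, 37 °C exposure of TZM-b1 reporter cells to NL4-3 virus at MOI 0.01 plus DEAE-dextran (80 μg/mL final), followed by addition of complete medium.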

The target of assay [1] is T1, HIV Env six-helix bundle (6HB) structure (Human immunodeficiency virus type 1 group M subtype B, UniProt P04579).
T1 construct: H9 cells chronically infected with HIV-1 (H9/HIV-1RF); endogenous in cells; host or cells: H9 cells chronically infected with HIV-1 strain RF (Env is made from the virus in the infected cells, not by transfection)
T1 sequence (P04579 32-519): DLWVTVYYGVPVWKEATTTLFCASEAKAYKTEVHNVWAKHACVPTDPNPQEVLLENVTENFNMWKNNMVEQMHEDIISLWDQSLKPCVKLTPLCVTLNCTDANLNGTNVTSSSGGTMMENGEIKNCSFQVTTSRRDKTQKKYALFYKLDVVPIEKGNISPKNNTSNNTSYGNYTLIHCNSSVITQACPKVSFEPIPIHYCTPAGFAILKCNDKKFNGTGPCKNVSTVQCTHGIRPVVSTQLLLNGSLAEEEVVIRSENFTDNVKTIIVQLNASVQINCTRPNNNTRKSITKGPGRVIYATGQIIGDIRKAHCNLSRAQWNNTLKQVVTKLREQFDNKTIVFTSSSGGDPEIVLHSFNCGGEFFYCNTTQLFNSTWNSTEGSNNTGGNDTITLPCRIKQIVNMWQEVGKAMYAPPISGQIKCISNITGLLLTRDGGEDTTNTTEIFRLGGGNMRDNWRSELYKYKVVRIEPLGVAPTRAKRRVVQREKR
T1 sequence (P04579 520-865): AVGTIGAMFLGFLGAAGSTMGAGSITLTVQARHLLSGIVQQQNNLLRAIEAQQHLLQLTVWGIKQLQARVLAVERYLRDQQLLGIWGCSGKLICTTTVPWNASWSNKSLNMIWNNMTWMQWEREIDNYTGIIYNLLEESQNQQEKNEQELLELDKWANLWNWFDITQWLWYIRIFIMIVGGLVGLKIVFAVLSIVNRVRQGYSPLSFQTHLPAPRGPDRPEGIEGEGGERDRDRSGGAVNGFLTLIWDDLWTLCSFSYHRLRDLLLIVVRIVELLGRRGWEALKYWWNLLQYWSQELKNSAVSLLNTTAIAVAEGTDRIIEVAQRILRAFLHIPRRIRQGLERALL
Nature of the assay: Six-helix bundle (6HB) assay. The assay is classed as cell-based, HIV-1 (strain RF). The procedure, abridged:
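Flow cytometry measured binding of a six-helix-bundle-specific polyclonal antibody, detected with PE-labelled secondary at 4 °C for 45 min, on H9/HIV-1 RF chronically infected cells. Compound was given 30 min at 37 °C before 1 μg/mL soluble CD4 induction for 1 h. Inhibition appears as reduced fluorescence.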

In patent US20090215778A1, “Alpha-substituted Arylmethyl Piperazine Pyrazolo [1,5-alpha]Pyrimidine Amide Derivatives” (priority 2007, published 2009) one finds IC50 data, which are given here for 21 molecules.

Take `COc1ccc(-c2nc3c(C(=O)N4CCN([C@H](CO)c5ccc(Cl)s5)C[C@H]4C)cnn3c(C(F)(F)F)c2C)cc1` [methanone, [(2R)-4-[(1R)-1-(5-chloro-2-thienyl)-2-hydroxyethyl]-2-methyl-1-piperazinyl][5-(4-methoxyphenyl)-6-methyl-7-(trifluoromethyl)pyrazolo[1,5-α]pyrimidin-3-yl]-]: the IC50 with HIV-1, NL4-3 strain was < 1000 nM; in assay [1], < 1000 nM.

Regarding `COc1ccc(-c2nc3c(C(=O)N4CCN([C@@H](CO)c5cccnc5OC)C[C@H]4C)cnn3c(C(F)(F)F)c2C)cc1` [methanone, [(2R)-4-[(1R)-2-hydroxy-1-(2-methoxy-3-pyridinyl)ethyl]-2-methyl-1-piperazinyl][5-(4-methoxyphenyl)-6-methyl-7-(trifluoromethyl)pyrazolo[1,5-α]pyrimidin-3-yl]-], the IC50 in the assay on HIV-1, NL4-3 strain is < 1000 nM; in assay [1] it was < 1000 nM.

In the case of `COc1ccc(-c2nc3c(C(=O)N4CCN([C@@H](CO)c5ccccc5OC)C[C@H]4C)cnn3c(C(F)(F)F)c2C)cc1` [methanone, [(2R)-4-[(1R)-2-hydroxy-1-(2-methoxyphenyl)ethyl]-2-methyl-1-piperazinyl][5-(4-methoxyphenyl)-6-methyl-7-(trifluoromethyl)pyrazolo[1,5-α]pyrimidin-3-yl]-], the IC50 in the assay with HIV-1, NL4-3 strain is < 1000 nM; in assay [1] it was < 1000 nM.

Take `COc1ccc(-c2nc3c(C(=O)N4CCN([C@@H](CO)c5cccc(OC)c5)C[C@H]4C)cnn3c(C(F)(F)F)c2C)cc1` [methanone, [(2R)-4-[(1R)-2-hydroxy-1-(3-methoxyphenyl)ethyl]-2-methyl-1-piperazinyl][5-(4-methoxyphenyl)-6-methyl-7-(trifluoromethyl)pyrazolo[1,5-α]pyrimidin-3-yl]-]: the IC50 in the assay on HIV-1, NL4-3 strain was < 1000 nM; in assay [1], < 1000 nM.

Take `COc1ccc(-c2nc3c(C(=O)N4CCN([C@H](CO)c5cc(C)cs5)C[C@H]4C)cnn3c(C(F)(F)F)c2C)cc1` [methanone, [(2R)-4-[(1R)-2-hydroxy-1-(4-methyl-2-thienyl)ethyl]-2-methyl-1-piperazinyl][5-(4-methoxyphenyl)-6-methyl-7-(trifluoromethyl)pyrazolo[1,5-α]pyrimidin-3-yl]-]: the IC50 in the assay with HIV-1, NL4-3 strain was < 1000 nM; in assay [1] it was < 1000 nM.

With `COc1ccc(-c2nc3c(C(=O)N4CCN([C@@H](CO)c5cscc5C)C[C@H]4C)cnn3c(C(F)(F)F)c2C)cc1` [methanone, [(2R)-4-[(1R)-2-hydroxy-1-(4-methyl-3-thienyl)ethyl]-2-methyl-1-piperazinyl][5-(4-methoxyphenyl)-6-methyl-7-(trifluoromethyl)pyrazolo[1,5-α]pyrimidin-3-yl]-], the IC50 is < 1000 nM in the assay with HIV-1, NL4-3 strain and < 1000 nM in assay [1].

With `COc1ccc(-c2nc3c(C(=O)N4CCN([C@H](CO)c5ccc(C)s5)C[C@H]4C)cnn3c(C(F)(F)F)c2C)cc1` [methanone, [(2R)-4-[(1R)-2-hydroxy-1-(5-methyl-2-thienyl)ethyl]-2-methyl-1-piperazinyl][5-(4-methoxyphenyl)-6-methyl-7-(trifluoromethyl)pyrazolo[1,5-α]pyrimidin-3-yl]-], the IC50 in the assay with HIV-1, NL4-3 strain is < 1000 nM; in assay [1], < 1000 nM.

On to `COc1ccc(-c2nc3c(C(=O)N4CCN([C@@H](CO)c5ccccc5)C[C@H]4C)cnn3c(C(F)(F)F)c2C)cn1` [methanone, [(2R)-4-[(1R)-2-hydroxy-1-phenylethyl]-2-methyl-1-piperazinyl][5-(6-methoxy-3-pyridinyl)-6-methyl-7-(trifluoromethyl)pyrazolo[1,5-α]pyrimidin-3-yl]-], for which the IC50 is < 1000 nM in the assay with HIV-1, NL4-3 strain and < 1000 nM in assay [1].

Turning to `COc1ccc(-c2nc3c(C(=O)N4CCN([C@@H](CO)c5ccccc5)C[C@H]4C)cnn3c(C(F)(F)F)c2OC)cc1` [methanone, [(2R)-4-[(1R)-2-hydroxy-1-phenylethyl]-2-methyl-1-piperazinyl][6-methoxy-5-(4-methoxyphenyl)-7-(trifluoromethyl)pyrazolo[1,5-α]pyrimidin-3-yl]-], the IC50 is < 1000 nM with HIV-1, NL4-3 strain and < 1000 nM in assay [1].

Take `COC[C@@H](c1ccccc1)N1CCN(C(=O)c2cnn3c(C(F)(F)F)c(C)c(-c4ccc(OC)cc4)nc23)[C@H](C)C1` [methanone, [(2R)-4-[(1R)-2-methoxy-1-phenylethyl]-2-methyl-1-piperazinyl][5-(4-methoxyphenyl)-6-methyl-7-(trifluoromethyl)pyrazolo[1,5-α]pyrimidin-3-yl]-]: the IC50 was < 1000 nM with HIV-1, NL4-3 strain and < 1000 nM in assay [1].

With `COc1ccc(-c2nc3c(C(=O)N4CCN([C@@H](C)c5oc(C)nc5C)C[C@H]4C)cnn3c(C(F)(F)F)c2C)cc1` [methanone, [(2R)-4-[(1S)-1-(2,4-dimethyl-5-oxazolyl)ethyl]-2-methyl-1-piperazinyl][5-(4-methoxyphenyl)-6-methyl-7-(trifluoromethyl)pyrazolo[1,5-α]pyrimidin-3-yl]-], the IC50 with HIV-1, NL4-3 strain was in the range of 1100 to 10000 nM; in assay [1] it was 1100 to 10000 nM.

Turning to `COc1ccc(-c2nc3c(C(=O)N4CCN([C@H](CO)c5cccc(OC)c5F)C[C@H]4C)cnn3c(C(F)(F)F)c2C)cc1` [methanone, [(2R)-4-[(1S)-1-(2-fluoro-3-methoxyphenyl)-2-hydroxyethyl]-2-methyl-1-piperazinyl][5-(4-methoxyphenyl)-6-methyl-7-(trifluoromethyl)pyrazolo[1,5-α]pyrimidin-3-yl]-], the IC50 in the assay on HIV-1, NL4-3 strain is < 1000 nM; in assay [1], < 1000 nM.

Consider `COc1ccc(-c2nc3c(C(=O)N4CCN([C@H](CO)c5ccccc5F)C[C@H]4C)cnn3c(C(F)(F)F)c2C)cc1` [methanone, [(2R)-4-[(1S)-1-(2-fluorophenyl)-2-hydroxyethyl]-2-methyl-1-piperazinyl][5-(4-methoxyphenyl)-6-methyl-7-(trifluoromethyl)pyrazolo[1,5-α]pyrimidin-3-yl]-], for which the IC50 was < 1000 nM in the assay with HIV-1, NL4-3 strain and < 1000 nM in assay [1].

With `COc1ccc(-c2nc3c(C(=O)N4CCN([C@@H](CO)c5ccco5)C[C@H]4C)cnn3c(C(F)(F)F)c2C)cc1` [methanone, [(2R)-4-[(1S)-1-(2-furanyl)-2-hydroxyethyl]-2-methyl-1-piperazinyl][5-(4-methoxyphenyl)-6-methyl-7-(trifluoromethyl)pyrazolo[1,5-α]pyrimidin-3-yl]-], the IC50 is < 1000 nM in the assay on HIV-1, NL4-3 strain and < 1000 nM in assay [1].

Regarding `COc1ccc(-c2nc3c(C(=O)N4CCN([C@@H](C)c5ccco5)C[C@H]4C)cnn3c(C(F)(F)F)c2C)cc1` [methanone, [(2R)-4-[(1S)-1-(2-furanyl)ethyl]-2-methyl-1-piperazinyl][5-(4-methoxyphenyl)-6-methyl-7-(trifluoromethyl)pyrazolo[1,5-α]pyrimidin-3-yl]-], the IC50 was < 1000 nM with HIV-1, NL4-3 strain and < 1000 nM in assay [1].

In the case of `COc1ccc(-c2nc3c(C(=O)N4CCN([C@@H](C)c5ccc(F)c(F)c5)C[C@H]4C)cnn3c(C(F)(F)F)c2C)cc1` [methanone, [(2R)-4-[(1S)-1-(3,4-difluorophenyl)ethyl]-2-methyl-1-piperazinyl][5-(4-methoxyphenyl)-6-methyl-7-(trifluoromethyl)pyrazolo[1,5-α]pyrimidin-3-yl]-], the IC50 with HIV-1, NL4-3 strain was < 1000 nM; in assay [1] it was < 1000 nM.

Turning to `COc1ccc(-c2nc3c(C(=O)N4CCN([C@@H](C)c5cc(F)cc(F)c5)C[C@H]4C)cnn3c(C(F)(F)F)c2C)cc1` [methanone, [(2R)-4-[(1S)-1-(3,5-difluorophenyl)ethyl]-2-methyl-1-piperazinyl][5-(4-methoxyphenyl)-6-methyl-7-(trifluoromethyl)pyrazolo[1,5-α]pyrimidin-3-yl]-], the IC50 was < 1000 nM with HIV-1, NL4-3 strain and < 1000 nM in assay [1].

On to `COc1ccc(-c2nc3c(C(=O)N4CCN([C@H](CO)c5c(C)noc5C)C[C@H]4C)cnn3c(C(F)(F)F)c2C)cc1` [methanone, [(2R)-4-[(1S)-1-(3,5-dimethyl-4-isoxazolyl)-2-hydroxyethyl]-2-methyl-1-piperazinyl][5-(4-methoxyphenyl)-6-methyl-7-(trifluoromethyl)pyrazolo[1,5-α]pyrimidin-3-yl]-], for which the IC50 in the assay with HIV-1, NL4-3 strain lay in the range of 1100 to 10000 nM; in assay [1], 1100 to 10000 nM.

Regarding `COc1ccc(-c2nc3c(C(=O)N4CCN([C@@H](C)c5cccc(N)c5)C[C@H]4C)cnn3c(C(F)(F)F)c2C)cc1` [methanone, [(2R)-4-[(1S)-1-(3-aminophenyl)ethyl]-2-methyl-1-piperazinyl][5-(4-methoxyphenyl)-6-methyl-7-(trifluoromethyl)pyrazolo[1,5-α]pyrimidin-3-yl]-], the IC50 in the assay with HIV-1, NL4-3 strain is < 1000 nM; in assay [1], < 1000 nM.

On to `COc1ccc(-c2nc3c(C(=O)N4CCN([C@@H](C)c5sccc5Cl)C[C@H]4C)cnn3c(C(F)(F)F)c2C)cc1` [methanone, [(2R)-4-[(1S)-1-(3-chloro-2-thienyl)ethyl]-2-methyl-1-piperazinyl][5-(4-methoxyphenyl)-6-methyl-7-(trifluoromethyl)pyrazolo[1,5-α]pyrimidin-3-yl]-], for which the IC50 with HIV-1, NL4-3 strain was < 1000 nM; in assay [1], < 1000 nM.

For the molecule `COc1ccc(-c2nc3c(C(=O)N4CCN([C@@H](C)c5ccc(N)cc5)C[C@H]4C)cnn3c(C(F)(F)F)c2C)cc1` [methanone, [(2R)-4-[(1S)-1-(4-aminophenyl)ethyl]-2-methyl-1-piperazinyl][5-(4-methoxyphenyl)-6-methyl-7-(trifluoromethyl)pyrazolo[1,5-α]pyrimidin-3-yl]-], the IC50 is < 1000 nM in the assay on HIV-1, NL4-3 strain and 1100 to 10000 nM in assay [1].
